In series [1] the target is Sodium-dependent noradrenaline transporter (Homo sapiens, UniProt P23975). Put plainly: Inhibition of noradrenaline re-uptake at human noradrenaline transporter expressed in HEK293 cells. Format: cell-based.
Series [2] in a line: Distribution coefficient of the compound, log D. It is filed as physicochemical. The settings on record: octanol/water.
Series [3] in a line: Dissociation constant, pKa of the compound. Format: physicochemical.
Series [4] is described as follows: Half life in rat liver microsome. Format: ADME. The settings on record: liver microsomes. On the technique in general: Microsomes from liver hold many membrane-bound enzymes, among them those of drug oxidation.
Series [5] in a line: Blood clearance in rat in CNS penetration assay at 3 mg/kg, iv or 5 mg/kg, po. It is filed as ADME, organism-based. The settings on record: whole blood.
A short description of series [6]: Volume of distribution in rat at 3 mg/kg, iv or 5 mg/kg, po. Format: ADME, organism-based. The settings on record: in vivo, read-out: Vdss.
A short description of series [7]: Oral bioavailability in rat at 5 mg/kg, po. It is filed as ADME, organism-based. The settings on record: in vivo.
Series [8] can be described thus: Half life in human liver microsome. Format: ADME. The settings on record: liver microsomes.
The test system of series [9] is Rattus norvegicus. Put plainly: Unbound volume of distribution in rat at 3 mg/kg, iv or 5 mg/kg, po. It is filed as ADME, organism-based. The settings on record: in vivo.
A short description of series [10]: Half life in rat at 3 mg/kg, iv or 5 mg/kg, po. Format: ADME, organism-based. The settings on record: in vivo.
Series [11] can be described thus: Tmax in rat at 3 mg/kg, iv or 5 mg/kg, po. Format: ADME, organism-based. The settings on record: in vivo.
A short description of series [12]: Volume of distribution in rat at 1 mg/kg, iv or 1 mg/kg, po. The settings on record: in vivo, read-out: Vdss. It is filed as ADME, organism-based.
The test system of series [13] is Rattus norvegicus. Put plainly: Unbound volume of distribution in rat at 1 mg/kg, iv or 1 mg/kg, po. The settings on record: in vivo. Format: ADME, organism-based.
Series [14] is described as follows: Half life in rat at 1 mg/kg, iv or 1 mg/kg, po. Format: ADME, organism-based. The settings on record: in vivo.
A short description of series [15]: Tmax in rat at 1 mg/kg, iv or 1 mg/kg, po. The settings on record: in vivo. Format: ADME, organism-based.
Series [16] can be described thus: Oral bioavailability in rat at 1 mg/kg, po. Format: ADME, organism-based. The settings on record: in vivo.

The record followed here is ChEMBL document CHEMBL1139648, “Designing rapid onset selective serotonin re-uptake inhibitors. Part 1: Structure-activity relationships of substituted (1S,4S)-4-(3,4-dichlorophenyl)-N-methyl-1,2,3,4-tetrahydro-1-naphthaleneamine” (Bioorg Med Chem Lett, 2006).

One may read the IC50 as the point on the concentration scale where inhibition reaches its midpoint. A higher IC50 goes with a need for much substance. As usually defined, the logD is lipophilicity at a set pH, counting ionised and neutral species. A low value points to lower lipophilicity. As a reminder, the pKa is the pH at which an ionisable group is half protonated. Lower therefore signals a group that gives up its proton readily. As a reminder, the half-life is the time needed for the level to fall by half in the phase considered. A low value points to fast loss. By bioavailability is commonly meant dose-corrected exposure relative to a reference, in per cent. A low value points to poor availability. For orientation: Tmax means the time at which the peak concentration occurs. Usually Log D stands for lipophilicity at a set pH, counting ionised and neutral species.

Sequence of Sodium-dependent noradrenaline transporter (P23975 whole entry): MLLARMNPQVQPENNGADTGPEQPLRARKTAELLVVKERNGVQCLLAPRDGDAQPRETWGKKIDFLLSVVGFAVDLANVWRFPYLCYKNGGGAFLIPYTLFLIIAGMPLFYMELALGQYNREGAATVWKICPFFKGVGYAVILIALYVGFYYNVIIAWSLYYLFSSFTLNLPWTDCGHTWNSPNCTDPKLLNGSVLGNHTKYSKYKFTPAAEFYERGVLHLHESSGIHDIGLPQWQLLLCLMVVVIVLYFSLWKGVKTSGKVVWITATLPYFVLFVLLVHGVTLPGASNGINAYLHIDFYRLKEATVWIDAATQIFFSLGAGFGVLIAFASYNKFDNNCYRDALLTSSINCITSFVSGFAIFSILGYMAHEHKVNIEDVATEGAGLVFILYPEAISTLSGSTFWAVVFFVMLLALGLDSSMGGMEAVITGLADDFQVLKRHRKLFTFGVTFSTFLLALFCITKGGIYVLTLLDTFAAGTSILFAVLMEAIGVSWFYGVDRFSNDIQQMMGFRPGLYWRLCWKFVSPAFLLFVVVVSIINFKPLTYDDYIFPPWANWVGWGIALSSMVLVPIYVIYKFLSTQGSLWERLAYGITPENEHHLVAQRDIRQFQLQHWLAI

With `CN[C@H]1CC[C@@H](c2ccc(Cl)c(Cl)c2)c2ccc(C[S+](C)[O-])cc21` (some centres not stated), the IC50 in series [1] came to 450 nM.
The same measure, in the same setting: to `CN[C@H]1CC[C@@H](c2ccc(Cl)c(Cl)c2)c2cc(C(N)=O)c(NS(C)(=O)=O)cc21` belongs 2100 nM; to `CN[C@H]1CC[C@@H](c2ccc(Cl)c(Cl)c2)c2cc(C(=O)O)ccc21`, 20300 nM; to `CN[C@H]1CC[C@@H](c2ccc(Cl)c(Cl)c2)c2ccc(S(=O)(=O)N(C)C)cc21`, 2700 nM.
The same measure, in the same setting: to `CN[C@@H]1CC[C@H](c2ccc(Cl)c(Cl)c2)c2ccc(S(N)(=O)=O)cc21` belongs 310 nM; to `CN[C@H]1CC[C@@H](c2ccc(Cl)c(Cl)c2)c2cc(S(C)(=O)=O)ccc21`, 4200 nM.
The same measure, in the same setting: to `CN[C@H]1CC[C@@H](c2ccc(Cl)c(Cl)c2)c2ccc(CC(N)=O)cc21` belongs 920 nM; to `CN[C@H]1CC[C@@H](c2ccc(Cl)c(Cl)c2)c2ccc(C#N)cc21`, 3200 nM.
On to `CN[C@H]1CC[C@@H](c2ccc(Cl)c(Cl)c2)c2ccc(S(=O)(=O)NC)cc21`, for which, in [1], half-maximal inhibition (IC50) required 1250 nM. Further, the log distribution coefficient (logD) in [2] is 2.8.
`CN[C@H]1CC[C@@H](c2ccc(Cl)c(Cl)c2)c2cccc(C(=O)O)c21`: in series [1], it took 880 nM to reach half-maximal inhibition (IC50).
With `CN[C@H]1CC[C@@H](c2ccc(Cl)c(Cl)c2)c2cc(S(N)(=O)=O)ccc21`, in [1], the concentration for half-maximal inhibition (IC50) turned out to be 2100 nM.
On the same count and under the same terms, with `CN[C@@H]1CC[C@@H](c2ccc(Cl)c(Cl)c2)c2ccc(S(N)(=O)=O)cc21` the figure was 310 nM; with `CN[C@H]1CC[C@@H](c2ccc(Cl)c(Cl)c2)c2cc(C(=O)N(C)C)ccc21`, 11500 nM; with `CN[C@H]1CC[C@@H](c2ccc(Cl)c(Cl)c2)c2cccc(C(N)=O)c21`, 1150 nM.
The same measure, in the same setting: with `CN[C@H]1CC[C@@H](c2ccc(Cl)c(Cl)c2)c2ccc(S(C)(=O)=O)cc21` the figure was 2100 nM.
Same read-out and setting: to `CNC(=O)c1cccc2c1[C@@H](NC)CC[C@H]2c1ccc(Cl)c(Cl)c1` belongs 1500 nM.
Take `CN[C@H]1CC[C@@H](c2ccc(Cl)c(Cl)c2)c2ccc(CNS(C)(=O)=O)cc21`: the half-inhibitory concentration (IC50) in series [1] was 960 nM.
In series [1], `CNC(=O)c1ccc2c(c1)[C@H](c1ccc(Cl)c(Cl)c1)CC[C@@H]2NC` came in with an IC50 of 5000 nM.
As for `CN[C@H]1CC[C@@H](c2ccc(Cl)c(Cl)c2)c2ccc(CO)cc21`, inhibition in [1] was half-maximal at 980 nM (IC50).
As to `CNC(=O)c1ccc2c(c1)[C@@H](NC)CC[C@H]2c1ccc(Cl)c(Cl)c1`, in series [3], the pKa was found to be 8.8. In series [2], this compound returned a pH-dependent lipophilicity (logD) of 2.8.
Turning to `CN[C@H]1CC[C@@H](c2ccc(Cl)c(Cl)c2)c2ccc(CC(=O)O)cc21`, in series [1], inhibition was half-maximal at 9600 nM (IC50).
In turn, `CN[C@H]1CC[C@@H](c2ccc(Cl)c(Cl)c2)c2ccc(C(=O)OC)cc21` gave a concentration for half-maximal inhibition (IC50) in [1] of 1250 nM.
`CN[C@H]1CC[C@@H](c2ccc(Cl)c(Cl)c2)c2cc(C(=O)O)c(NS(C)(=O)=O)cc21`: the IC50 in [1] came out at 9100 nM.
Same read-out and setting: with `CN[C@H]1CC[C@@H](c2ccc(Cl)c(Cl)c2)c2ccc(S(=O)(=O)NCCO)cc21` the figure was 540 nM; with `CN[C@H]1CC[C@@H](c2ccc(Cl)c(Cl)c2)c2ccc(NS(C)(=O)=O)cc21`, 60 nM; with `CN[C@H]1CC[C@@H](c2ccc(Cl)c(Cl)c2)c2cc([S+](C)[O-])ccc21` (some centres not stated), 1800 nM.
On the same count and under the same terms, to `CN[C@H]1CC[C@H](c2ccc(Cl)c(Cl)c2)c2ccc(S(N)(=O)=O)cc21` belongs 11 nM; to `CN[C@H]1CC[C@@H](c2ccc(Cl)c(Cl)c2)c2ccc([S+](C)[O-])cc21` (some centres not stated), 2000 nM.
Still for that read-out and setting: to `CN[C@H]1CC[C@@H](c2ccc(Cl)c(Cl)c2)c2cc(C(N)=O)ccc21` belongs 1100 nM.
Consider `CN[C@H]1CC[C@@H](c2ccc(Cl)c(Cl)c2)c2ccc(-n3cncn3)cc21`, for which inhibition in series [1] was half-maximal at 760 nM (IC50).
Regarding `CN[C@H]1CC[C@@H](c2ccc(Cl)c(Cl)c2)c2ccc(S(N)(=O)=O)cc21`, the half-life in [4] is over 2 h; in series [8], over 2 h; in series [10], 4 h. This compound came in with a concentration for half-maximal inhibition (IC50) in series [1] of 770 nM. In addition, the clearance in [5] turned out to be 60 mL/min/kg. In [6], the Vd is 19 L/kg. Moreover, the bioavailability in [7] was 44%. The compound further displayed a pKa in [3] of 8.4. Also, the Vdss in the series with Rattus norvegicus [9] is listed as 600 L/kg. Moreover, the Tmax in series [11] amounted to 1 h. Besides, the logD in [2] stood at 2.3.
In series [1], `CN[C@H]1CC[C@@H](c2ccc(Cl)c(Cl)c2)c2ccc([N+](=O)[O-])cc21` registered a half-inhibitory concentration (IC50) of 2900 nM.
`CN[C@H]1CC[C@@H](c2ccc(Cl)c(Cl)c2)c2ccc(C(N)=O)cc21` had an IC50 in series [1] of 410 nM. For the same compound, the pKa in series [3] worked out at 8.5. This compound registered a logD in [2] of 2.3.
Compound `CN[C@H]1CC[C@@H](c2ccc(Cl)c(Cl)c2)c2ccc(-n3ccnn3)cc21` gave a concentration for half-maximal inhibition (IC50) in series [1] of 650 nM.
Regarding `CN[C@H]1CC[C@@H](c2ccc(Cl)c(Cl)c2)c2ccccc21` [SERTRALINE], the half-life in series [4] was 0.383 h; in series [8] it was over 2 h; in series [14] it was 5 h. Further, in series [12], the Vd stood at 52 L/kg. For the same compound, the Vdu in the series with Rattus norvegicus [13] was 1900 L/kg. Besides, the pKa in series [3] was 9.3. Also, the Tmax in [15] was 4 h. This compound came in with a bioavailability in [16] of 51%. Further, the “Log D” value in [2] is listed as 3.1.
